We go through 4 compounds from patent US9150865B2 (priority 2010, dated 2015).

Experiment [1] addresses T1, ADAM10 (Homo sapiens, UniProt O14672). Format: cell-based.
Experiment [2] concerns the target T1, ADAM10. The format is cell-based. This is another data set of the same source.
For a further experiment, the system named is A549 cells. The format is cell-based, human.
Experiment [3] concerns the target T1, ADAM10. Format: cell-based. This is another data set of the same source.
For experiment [4], the target named is T1, ADAM10. Format: cell-based. The source holds these as a separate data set.
The subject of experiment [5] is Human pulmonary artery endothelial cells (HPAECs). Format: cell-based.
In another experiment the test system is BALB/c mice. The conditions noted are these: mouse, in vivo.
The subject of a further experiment is C57BL/6J mice. To be noted: mouse, in vivo.
In a further experiment the test system is S. aureus strain Newman. Also noted: species or system Staphylococcus aureus. To be noted: in vivo, ip.
In the next experiment the test system is S. aureus Newman. Also noted: species or system Staphylococcus aureus. The conditions noted are these: in vivo.
The test system of a further experiment is S. aureus USA300/LAC. Also noted: species or system Staphylococcus aureus. To be noted: in vivo.
In experiment [6] the target is T1, ADAM10. Format: cell-based. The source holds these as a separate data set.
The subject of another experiment is A431 keratinocytes. The format is cell-based.
In the next experiment the test system is rabbit red cells. Format: cell-based.
Experiment [7] concerns ADAM10. The conditions noted are these: cited from earlier work.
In experiment [8] the target is T1, ADAM10. Format: cell-based. The source holds these as a separate data set.

“Also recorded” adds a separate entry of the source.

T1 sequence (O14672 214-748 limits assumed): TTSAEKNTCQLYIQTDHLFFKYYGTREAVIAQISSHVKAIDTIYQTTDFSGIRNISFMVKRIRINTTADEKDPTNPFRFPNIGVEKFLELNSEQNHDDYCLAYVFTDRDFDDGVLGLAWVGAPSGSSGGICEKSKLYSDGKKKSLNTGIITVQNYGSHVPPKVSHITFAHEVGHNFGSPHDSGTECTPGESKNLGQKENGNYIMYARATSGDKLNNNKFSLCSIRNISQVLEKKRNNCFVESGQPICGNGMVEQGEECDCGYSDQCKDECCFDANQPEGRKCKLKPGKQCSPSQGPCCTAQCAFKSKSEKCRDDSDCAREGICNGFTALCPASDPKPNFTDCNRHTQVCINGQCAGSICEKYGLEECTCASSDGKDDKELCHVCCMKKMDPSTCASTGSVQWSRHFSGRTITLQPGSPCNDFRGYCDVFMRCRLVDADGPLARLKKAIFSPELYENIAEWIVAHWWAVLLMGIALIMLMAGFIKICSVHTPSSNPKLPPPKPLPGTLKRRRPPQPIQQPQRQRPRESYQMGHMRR

As to `CNC(=O)[C@@H](NC(=O)[C@H](CCCc1ccccc1)[C@H](C)N(O)C=O)C(C)(C)C` [GI254023X], on ADAM10 [1], the “Hla-induced E-cadherin cleavage” value is “nearly abrogated Hla-induced E-cadherin cleavage”. Further, the “Hla-induced loss of E-cadherin expression and disruption of cell junctions” value on ADAM10 [2] was “could be prevented; also recorded: is inhibited”. For the same compound, the “toxin binding and oligomerization on the surface of A549 cells” value in the experiment on A549 cells is “markedly impaired toxin binding and subsequent oligomerization; also recorded: impaired toxin binding and oligomerization on A549 cells”. Also, the “PLY-induced E-cadherin cleavage” value at ADAM10 [3] is “prevented PLY-induced E-cadherin cleavage”. For the same compound, the “Hla-induced VE-cadherin cleavage” value on ADAM10 [4] is on record as “prevented VE-cadherin cleavage”. The “Hla-mediated barrier disruption (ECIS)” value in [5] is on record as “complete protection of HPAECs from Hla-mediated barrier disruption”. In addition, in the experiment with BALB/c mice, the “vascular integrity / Evans blue dye extravasation” value is “enhanced vascular integrity, manifest by limited dye extravasation”. In addition, the “accumulation of cells and proteinaceous edema in the alveolar space (BAL cell count, protein)” value in the experiment with C57BL/6J mice is “reduced the accumulation of both cells and proteinaceous edema in the alveolar space; also recorded: reduced alveolar exudates; also recorded: prevents Hla-induced lung epithelial barrier disruption in vivo”. Further, the “E-cadherin cleavage in response to Hla treatment in mice” value in the experiment on C57BL/6J mice (ip) is listed as “prevented E-cadherin cleavage in response to Hla treatment”. Moreover, the “protection against lethal S. aureus pneumonia (mortality curves)” value in the experiment on S. aureus strain Newman is “protected from rapidly lethal S. aureus pneumonia, displaying an increase in time to death and survival among some animals; also recorded: protected against lethal pneumonia”. Further, in the experiment on S. aureus Newman, the “survival of lethal challenge” value is on record as “all experimental animals succumbed to the lethal challenge”. In the experiment on S. aureus Newman (200 mg/kg), the appearance of illness result is “less ill in appearance”. Further, in the experiment on S. aureus Newman (iv, 200 mg/kg), the time-to-death entry is reported as “prolongation of time-to-death”. In the experiment with S. aureus USA300/LAC, the abscess size entry is given as “reduction in abscess size”, the dermonecrotic skin lesions entry is reported as “did not demonstrate dermonecrotic skin lesions” and the “skin breakdown (dermonecrosis) over the site of infection” value is given as “completely prevented skin breakdown over the site of infection”. The “full-length E-cadherin expression upon toxin treatment” value at ADAM10 [6] is “preservation of full-length E-cadherin expression”. The “epithelial barrier function upon toxin treatment (ECIS)” value with A431 keratinocytes was “preservation of full-length E-cadherin expression and epithelial barrier function”. For the same compound, the Hla-induced hemolysis result in the experiment with rabbit red cells is reported as “blunted hemolysis”.
On to `C[C@H](CCC(=O)O)C[C@H](C)C[C@H](C)C(=O)/C=C(\O)[C@H](C)C[C@H](C)C/C=C/[C@@H](C)[C@@H](O)[C@@H](C)[C@@H](O)C[C@@H]1CC[C@@](C)([C@H]2CC[C@@](C)([C@@H](C)O)O2)O1` [Ionomycin], for which the “E-cadherin cleavage induced by agent alone” value at ADAM10 [1] is given as “stimulating E-cadherin cleavage; also recorded: E-cadherin CTFs were generated; also recorded: enhancing cleavage”. For the same compound, in the experiment with ADAM10 [7], the “induction of ADAM10 metalloprotease activity” value was “potently induces the metalloprotease activity of ADAM10”.
Regarding Methyl-β-cyclodextrin, the “Hla-induced E-cadherin cleavage” value on ADAM10 [1] is “abrogated metalloprotease activation and E-cadherin cleavage”. On ADAM10 [8], the Hla-induced metalloprotease activation entry is given as “abrogated metalloprotease activation”.
For the compound “N—(R)-[2-hydroxyaminocarbonyl)methyl]-4-methylpentanoyl-L-napthylalanyl-L-alanine, 2-aminoethyl amide [TAPI-1]”, on ADAM10 [1], the “Hla-induced E-cadherin cleavage (Western blot)” value is listed as “impaired Hla-induced E-cadherin cleavage” and the “surface expression of E-cadherin after Hla (immunofluorescence)” value is given as “preserved surface expression of E-cadherin”. Besides, the “Hla-induced VE-cadherin cleavage” value at ADAM10 [4] was “prevented VE-cadherin cleavage”. Further, the “barrier function after Hla (ECIS)” value in experiment [5] is “maintenance of barrier function; also recorded: did not result in loss of barrier function”.
